Data published in patent publication US20160311882A1, “Novel Compound for Treatment of Severe Hypoglycemia” (ELI LILLY AND COMPANY, priority 2013, published 2016).
Read-outs that look alike come from different tables or passages of the source. Non-standard residues stand in square brackets, D forms with d. Residues, ends and D or L forms follow the SMILES beside them. Aib = CC(C)(N)C(=O)O

How the values were obtained:
blood glucose levels = assay: Effects of compound on blood glucose levels in C57/Bl6 male mice; type: in vivo; conditions: for Blood glucose levels: mean ± SEM of 4 mice
Procedure: To determine the effects of the compound of SEQ ID NO: 2 on blood glucose levels, the compound is administered to C57/B 16 mice. Three month old male C57BL6 mice (Harlan Laboratories) are used Animals are individually housed in a temperature-controlled (24° C.) facility with a 12 hour light/dark cycle, and have free access to food and water. After 1 week acclimation to the facility, mice are randomized to treatment groups (n=4/group). Test compound is formulated in Buffer 2 (see Physical stability test using Thioflavin T binding assay). On the morning of test, food is removed at 08:00 AM. Two hours after food is removed, the test compound is given subcutaneously at 0, 0.3, 1, 3 or 10 μg/kg doses. Blood glucose is measured at time 0, 15, 30, 60 and 120 minutes after test compound administration with an ACCU-CHECK® (Roche Diagnostics) glucometer. […] Results are expressed as mean±standard error mean (SEM) of 4 mice per group.
Blood glucose levels at 10 μg/kg of compound of SEQ ID NO: 2 is taken as the maximum value.

[1] = Chemical stability by RP-HPLC (% main peak); type: physicochemical; conditions: for 4° C. % Main Peak / 30° C. % Main Peak / 40° C. % Main Peak: 4 weeks
Procedure: (§1) The compound of SEQ ID NO: 2 is dissolved in H2O to a 10 mg/mL concentration (peptide content), filtered through a 0.22 μm filter (Millex, SLGV004SL), and then diluted to 1 mg/mL in Buffer P5 (10 mM Histidine, 150 mM NaCl in H20, pH 5.0) or Buffer P6 (10 mM Histidine, 150 mM NaCl in H20, pH 6.0). Each solution is transferred to three vials and autoclaved. Samples are then maintained at 4° C., 30° C. and 40° C. Samples are visually assessed at different time points for turbidity and phase separation. Stability of the compound is assessed by analytical reverse phase HPLC (RP-HPLC) on a Phenomenex Aeris Widepore, 3.6 μm, XB-C18 4.6×100 mm column (P/NO 00D-4482-E0) heated at 60° C. with a AB (A=0.05% TFA/H2O; B=0.04% TFA/acetonitrile) gradient of 5% B isocratic over 5 min, 5 to 25% B over 20 minutes, 25 to 30% B over 30 min, and 30 to 45% B over 10 min with a flow rate of 1.2 mL/min (wavelength of 220 ηm).
The compound of SEQ ID NO: 2 also maintains chemical stability at pH 5 (Buffer P5) and pH 6 (Buffer P6) when maintained at 4° C., 30° C. and 40° C. for 4 weeks.

[2] = type: physicochemical
Procedure: as §1

[3] = Physical stability test using Thioflavin T binding assay (fibrillation); type: physicochemical; conditions: 25° C.; for Thioflavin T fluorescence t = 0 h / Thioflavin T fluorescence t = 48 h / Thioflavin T fluorescence t = 96 h: 1 mg/mL, stirred 300 rpm
Procedure: Fibrillation is a common problem when glucagon is formulated in aqueous solution. To assess the level of fibrillation of the compound of the present invention, a Thioflavin T binding assay is performed.
All samples are mechanically stressed at 25° C. in a magnetic stir plate set at 300 rpm. […] Raw data is collected with Softmax Pro 5.4.1 (Molecular Devices) and imported to Excel.

[4] = Buffer 1 (20 mM Histidine, pH 6.0)
[5] = Buffer 2 (10 mM Histidine, 150 nM NaCl, pH 6.0)
[6] = Buffer 3 (10 mM Histidine, 300 mM sorbitol, pH 6.0)
[7] = Buffer 4 (10 mM Histidine, 0.02% Tween 80, pH 6.0)
[8] = Buffer 5 (10 mM Histidine, 300 mM sucrose, pH 6.0)

Structure (SMILES): CC(C)C[C@H](NC(=O)[C@H](Cc1c[nH]c2ccccc12)NC(=O)[C@H](CCC(=O)O)NC(=O)[C@@H](NC(=O)[C@H](Cc1ccccc1)NC(=O)[C@H](CCC(=O)O)NC(=O)[C@H](CCC(N)=O)NC(=O)[C@H](C)NC(=O)[C@H](CCCCN)NC(=O)[C@H](CCCCN)NC(=O)C(C)(C)NC(=O)[C@H](CC(=O)O)NC(=O)[C@H](CC(C)C)NC(=O)[C@H](Cc1ccc(O)cc1)NC(=O)[C@H](CCCCN)NC(=O)[C@H](CO)NC(=O)[C@H](Cc1ccc(O)cc1)NC(=O)[C@H](CC(=O)O)NC(=O)[C@H](CO)NC(=O)[C@@H](NC(=O)[C@H](Cc1ccccc1)NC(=O)[C@@H](NC(=O)CNC(=O)[C@H](CCC(N)=O)NC(=O)[C@H](CO)NC(=O)[C@@H](N)Cc1ccc(O)cc1)[C@@H](C)O)[C@@H](C)O)C(C)C)C(=O)N[C@@H](CC(C)C)C(=O)N[C@@H](CCCCN)C(=O)N[C@H](C(=O)NCC(=O)N1CCC[C@H]1C(=O)N[C@@H](CO)C(=O)N[C@@H](CO)C(=O)NCC(=O)N[C@@H](C)C(=O)N1CCC[C@H]1C(=O)N1CCC[C@H]1C(=O)N[C@@H](CCCCN)C(=O)N[C@@H](CO)C(=O)N[C@@H](CCCCN)C(N)=O)[C@@H](C)O [SEQ ID NO: 2] (H-YSQGTFTSDYSKYLD[Aib]KKAQEFVEWLLKTGPSSGAPPKSK-NH2; N-terminus assumed)
- Blood glucose levels (blood glucose levels; 0.3 μg/kg subcutaneously, 0 minutes): 140.2 ± 2.4 mg/dL
- Blood glucose levels (blood glucose levels; 0.3 μg/kg subcutaneously, 15 minutes): 185.6 ± 7.5 mg/dL
- Blood glucose levels (blood glucose levels; 0.3 μg/kg subcutaneously, 30 minutes): 193.3 ± 6.0 mg/dL
- Blood glucose levels (blood glucose levels; 0.3 μg/kg subcutaneously, 60 minutes): 167.4 ± 6.6 mg/dL
- Blood glucose levels (blood glucose levels; 0.3 μg/kg subcutaneously, 120 minutes): 147.0 ± 5.1 mg/dL
- Blood glucose levels (blood glucose levels; 1 μg/kg subcutaneously, 0 minutes): 140.0 ± 2.0 mg/dL
- Blood glucose levels (blood glucose levels; 1 μg/kg subcutaneously, 15 minutes): 200.6 ± 5.8 mg/dL
- Blood glucose levels (blood glucose levels; 1 μg/kg subcutaneously, 30 minutes): 204.8 ± 8.9 mg/dL
- Blood glucose levels (blood glucose levels; 1 μg/kg subcutaneously, 60 minutes): 161.9 ± 4.0 mg/dL
- Blood glucose levels (blood glucose levels; 1 μg/kg subcutaneously, 120 minutes): 145.6 ± 3.9 mg/dL
- Blood glucose levels (blood glucose levels; 3 μg/kg subcutaneously, 0 minutes): 141.5 ± 3.0 mg/dL
- Blood glucose levels (blood glucose levels; 3 μg/kg subcutaneously, 15 minutes): 245.5 ± 10.0 mg/dL
- Blood glucose levels (blood glucose levels; 3 μg/kg subcutaneously, 30 minutes): 265.6 ± 13.3 mg/dL
- Blood glucose levels (blood glucose levels; 3 μg/kg subcutaneously, 60 minutes): 188.1 ± 9.3 mg/dL
- Blood glucose levels (blood glucose levels; 3 μg/kg subcutaneously, 120 minutes): 143.9 ± 3.8 mg/dL
- Blood glucose levels (blood glucose levels; 10 μg/kg subcutaneously, 0 minutes): 147.7 ± 4.4 mg/dL
- Blood glucose levels (blood glucose levels; 10 μg/kg subcutaneously, 15 minutes): 252.3 ± 11.2 mg/dL
- Blood glucose levels (blood glucose levels; 10 μg/kg subcutaneously, 30 minutes): 271.8 ± 13.8 mg/dL
- Blood glucose levels (blood glucose levels; 10 μg/kg subcutaneously, 60 minutes): 202.1 ± 7.9 mg/dL
- Blood glucose levels (blood glucose levels; 10 μg/kg subcutaneously, 120 minutes): 146.3 ± 5.5 mg/dL
- ED50 (blood glucose levels; calculated on the 30 minute glucose measurements, 10 μg/kg taken as maximum, subcutaneous): 1.36 µg/kg
- % Main Peak Day 0 ([1]; Buffer P5 (pH 5)): 96.53%
- 4° C. % Main Peak ([1]; Buffer P5 (pH 5)): 96.93%
- 30° C. % Main Peak ([1]; Buffer P5 (pH 5)): 93.82%
- 40° C. % Main Peak ([1]; Buffer P5 (pH 5)): 91.59%
- main peak changes ([1]; Buffer P5, pH 5 at 4-wk 30° C. vs 4° C.): less than 4%
- main peak changes ([1]; Buffer P5, pH 5 at 4-wk 40° C. vs 4° C.): < 6%
- % Main Peak Day 0 ([1]; Buffer P6 (pH 6)): 97.00%
- 4° C. % Main Peak ([1]; Buffer P6 (pH 6)): 95.89%
- 30° C. % Main Peak ([1]; Buffer P6 (pH 6)): 95.17%
- 40° C. % Main Peak ([1]; Buffer P6 (pH 6)): 90.57%
- main peak changes ([1]; Buffer P6, pH 6 at 4-wk 30° C. vs 4° C.): < 1%
- main peak changes ([1]; Buffer P6, pH 6 at 4-wk 40° C. vs 4° C.): < 6%
- solubility [2]: maintains good solubility
- Physical appearance ([2]; 4° C., 30° C. and 40° C., pH 5 and pH 6, over 4 weeks): clear to colorless, with no opalescences and no particles
- 30° C. vs 4° C. Recovery 4 wk ([2]; Buffer P5 (pH 5.0)): 102%
- 40° C. vs 4° C. Recovery 4 wk ([2]; Buffer P5 (pH 5.0)): 99%
- 30° C. vs 4° C. Recovery 4 wk ([2]; Buffer P6 (pH 6.0)): 101%
- 40° C. vs 4° C. Recovery 4 wk ([2]; Buffer P6 (pH 6.0)): 103%
- fibrillation as measured by the Thioflavin T binding assay ([3]; pH 6, 96 hours, mechanical stress): did not demonstrate fibrillation
- Thioflavin T fluorescence t = 0 h [3, 4]: 84.5 fluorescence units
- Thioflavin T fluorescence t = 48 h [3, 4]: 89.5 fluorescence units
- Thioflavin T fluorescence t = 96 h [3, 4]: 98.1 fluorescence units
- Thioflavin T fluorescence t = 0 h [3, 5]: 188.4 fluorescence units
- Thioflavin T fluorescence t = 48 h [3, 5]: 211.6 fluorescence units
- Thioflavin T fluorescence t = 96 h [3, 5]: 231.4 fluorescence units
- Thioflavin T fluorescence t = 0 h [3, 6]: 83.6 fluorescence units
- Thioflavin T fluorescence t = 48 h [3, 6]: 90.9 fluorescence units
- Thioflavin T fluorescence t = 96 h [3, 6]: 101.7 fluorescence units
- Thioflavin T fluorescence t = 0 h [3, 7]: 70.1 fluorescence units
- Thioflavin T fluorescence t = 48 h [3, 7]: 76.9 fluorescence units
- Thioflavin T fluorescence t = 96 h [3, 7]: 83.9 fluorescence units
- Thioflavin T fluorescence t = 0 h [3, 8]: 86.3 fluorescence units
- Thioflavin T fluorescence t = 48 h [3, 8]: 87.5 fluorescence units
- Thioflavin T fluorescence t = 96 h [3, 8]: 98.9 fluorescence units
